The NIST ThermoML archive (doi:10.1021/je800999s)

Test: molar heat capacity at constant pressure; xn = mol fraction of the nth substance listed
Conditions: 101 kPa, Liquid, Large sample (1 g) DSC

O=CN1CCOCC1 [N-formylmorpholine] + O
molar heat capacity at constant pressure [J/K/mol]
Conditions	x1 = 0.0997	x1 = 0.1998	x1 = 0.2992	x1 = 0.3993	x1 = 0.4975	x1 = 0.5978	x1 = 0.6954	x1 = 0.7988	x1 = 0.8946	x1 = 1
303.15 K	86	98	111	123	134	145	154	164	174	185
308.15 K	86	99	111	124	135	146	156	166	176	186
313.15 K	87	100	113	125	137	148	158	168	178	188
318.15 K	87	100	114	126	138	149	159	169	179	189
323.15 K	88	101	115	127	140	150	161	171	181	191
328.15 K	88	102	116	129	141	152	162	173	183	193
333.15 K	89	103	117	130	142	153	164	174	184	195
338.15 K	90	104	118	131	144	155	166	176	186	197
343.15 K	91	106	120	133	146	157	168	178	189	200
348.15 K	91	107	121	135	147	158	169	180	190	201
353.15 K	92	107	122	135	148	159	170	181	191	202
